PubChem BioAssay (NCI)
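Step 1: Grow cells in 96-well plates. Step 2: Expose to compound for 48 hours at 5 concentrations. Step 3: Interpolate endpoints linearly; if unreached, use highest concentration. TGI is the concentration that stops growth completely.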

Experiments:
Experiment in all cases: NCI tumour cell line growth inhibition, 48 h
A498 renal = system: A498 renal
CCRF-CEM leukemia = system: CCRF-CEM leukemia
DU-145 prostate = system: DU-145 prostate
HCC-2998 colon = system: HCC-2998 colon
K-562 leukemia = system: K-562 leukemia
M14 melanoma = system: M14 melanoma
MCF7 breast = system: MCF7 breast
MDA-MB-231 breast = system: MDA-MB-231 breast
NCI/ADR-RES ovarian = system: NCI/ADR-RES ovarian
OVCAR-3 ovarian = system: OVCAR-3 ovarian
OVCAR-4 ovarian = system: OVCAR-4 ovarian
OVCAR-8 ovarian = system: OVCAR-8 ovarian
SK-MEL-2 melanoma = system: SK-MEL-2 melanoma
SK-MEL-5 melanoma = system: SK-MEL-5 melanoma
SN12C renal = system: SN12C renal
SNB-75 CNS = system: SNB-75 CNS
SR leukemia = system: SR leukemia
T-47D breast = system: T-47D breast
MDA-N = system: MDA-N

Work on COc1ccc2c(c1)CCN1CCCc3ccc(OC)cc3C21 (stereo not drawn) yielded a TGI (A498 renal) greater than 100 µM, a TGI (CCRF-CEM leukemia) greater than 100 µM and a TGI (DU-145 prostate) greater than 100 µM. For the same compound, the TGI (HCC-2998 colon) was greater than 100 µM, the TGI (K-562 leukemia) was greater than 100 µM and the TGI (M14 melanoma) was greater than 100 µM. The TGI (MCF7 breast) was greater than 100 µM, the TGI (MDA-MB-231 breast) was greater than 100 µM and the TGI (NCI/ADR-RES ovarian) was greater than 100 µM. It also gave a TGI (OVCAR-3 ovarian) greater than 100 µM, a TGI (OVCAR-4 ovarian) greater than 100 µM and a TGI (OVCAR-8 ovarian) greater than 100 µM. It also gave a TGI (SK-MEL-2 melanoma) greater than 100 µM, a TGI (SK-MEL-5 melanoma) greater than 100 µM and a TGI (SN12C renal) greater than 100 µM. It also gave a TGI (SNB-75 CNS) of 83.2 µM, a TGI (SR leukemia) greater than 100 µM and a TGI (T-47D breast) greater than 100 µM.
In the case of CC(C)[Si](OC1=C(c2ccccc2)C(NC(=O)/C=C/c2ccc([N+](=O)[O-])cc2)CCC1)(C(C)C)C(C)C (stereo not drawn), the TGI (A498 renal) is reported as greater than 100 µM, the TGI (CCRF-CEM leukemia) is reported as greater than 100 µM and the TGI (DU-145 prostate) is reported as greater than 100 µM. For the same compound, the TGI (HCC-2998 colon) was greater than 100 µM, the TGI (K-562 leukemia) was greater than 100 µM and the TGI (M14 melanoma) was greater than 100 µM. For the same compound, the TGI (MCF7 breast) was greater than 100 µM, the TGI (MDA-MB-231 breast) was greater than 100 µM and the TGI (NCI/ADR-RES ovarian) was greater than 100 µM. The TGI (OVCAR-3 ovarian) was greater than 100 µM, the TGI (OVCAR-8 ovarian) was greater than 100 µM and the TGI (SK-MEL-2 melanoma) was greater than 100 µM. The TGI (SK-MEL-5 melanoma) was greater than 100 µM, the TGI (SNB-75 CNS) was greater than 100 µM and the TGI (SR leukemia) was greater than 100 µM. The TGI (T-47D breast) was greater than 100 µM.
Compound COc1cc2c(cc1OC)-c1c(oc3cc(OC4OC(CO)C(O)C(O)C4O)c(OC)cc3c1=O)C(O)O2 (stereo not drawn) has a TGI (A498 renal) greater than 100 µM, a TGI (CCRF-CEM leukemia) greater than 100 µM and a TGI (DU-145 prostate) greater than 100 µM. For the same compound, the TGI (HCC-2998 colon) was greater than 100 µM, the TGI (K-562 leukemia) was greater than 100 µM and the TGI (M14 melanoma) was greater than 100 µM. For the same compound, the TGI (MDA-MB-231 breast) was greater than 100 µM, the TGI (NCI/ADR-RES ovarian) was greater than 100 µM and the TGI (OVCAR-3 ovarian) was greater than 100 µM. It also gave a TGI (OVCAR-4 ovarian) greater than 100 µM, a TGI (OVCAR-8 ovarian) greater than 100 µM and a TGI (SK-MEL-2 melanoma) greater than 100 µM. The TGI (SK-MEL-5 melanoma) was greater than 100 µM, the TGI (SN12C renal) was greater than 100 µM and the TGI (SNB-75 CNS) was greater than 100 µM.
For Cn1c(=O)n2c(-c3ccccc3)c(-c3ccccc3)n2c1=O, the TGI (A498 renal) was greater than 100 µM, the TGI (CCRF-CEM leukemia) was greater than 100 µM and the TGI (HCC-2998 colon) was greater than 100 µM. For the same compound, the TGI (K-562 leukemia) was greater than 100 µM, the TGI (M14 melanoma) was greater than 100 µM and the TGI (MCF7 breast) was greater than 100 µM. The TGI (MDA-MB-231 breast) was greater than 100 µM, the TGI (MDA-N) was greater than 100 µM and the TGI (NCI/ADR-RES ovarian) was greater than 100 µM. For the same compound, the TGI (OVCAR-3 ovarian) was greater than 100 µM, the TGI (OVCAR-4 ovarian) was greater than 100 µM and the TGI (OVCAR-8 ovarian) was greater than 100 µM. It also gave a TGI (SK-MEL-2 melanoma) greater than 100 µM, a TGI (SK-MEL-5 melanoma) greater than 100 µM and a TGI (SN12C renal) greater than 100 µM. It also gave a TGI (SNB-75 CNS) greater than 100 µM and a TGI (SR leukemia) greater than 100 µM.
Compound CCOC(=O)c1c(-c2ccccc2)nc2c(OC)nccn12 has a TGI (CCRF-CEM leukemia) greater than 100 µM, a TGI (DU-145 prostate) greater than 100 µM and a TGI (HCC-2998 colon) greater than 100 µM. The TGI (K-562 leukemia) was greater than 100 µM, the TGI (M14 melanoma) was greater than 100 µM and the TGI (MCF7 breast) was greater than 100 µM. The TGI (MDA-MB-231 breast) was greater than 100 µM, the TGI (NCI/ADR-RES ovarian) was greater than 100 µM and the TGI (OVCAR-3 ovarian) was greater than 100 µM. The TGI (OVCAR-4 ovarian) was greater than 100 µM, the TGI (OVCAR-8 ovarian) was greater than 100 µM and the TGI (SK-MEL-2 melanoma) was greater than 100 µM. For the same compound, the TGI (SK-MEL-5 melanoma) was greater than 100 µM, the TGI (SN12C renal) was greater than 100 µM and the TGI (SNB-75 CNS) was greater than 100 µM. It also gave a TGI (SR leukemia) greater than 100 µM and a TGI (T-47D breast) greater than 100 µM.
With C=C(Br)C(C)(Br)CCC(Br)C(C)(C)Br (stereo not drawn) the TGI (CCRF-CEM leukemia) was 63.5 µM, the TGI (K-562 leukemia) was greater than 100 µM and the TGI (M14 melanoma) was 61.3 µM. The TGI (OVCAR-4 ovarian) was greater than 100 µM, the TGI (OVCAR-8 ovarian) was 33.3 µM and the TGI (SK-MEL-2 melanoma) was 55.7 µM. It also gave a TGI (SK-MEL-5 melanoma) greater than 100 µM, a TGI (SN12C renal) of 52.4 µM and a TGI (SNB-75 CNS) of 89.2 µM. For the same compound, the TGI (SR leukemia) was 54.7 µM.
Compound CCOC1(OCC)N=C(N)C2(C#N)C3(C(=O)N(C(C)C)N=C3C)C12C#N (stereo not drawn) has a TGI (A498 renal) greater than 100 µM, a TGI (CCRF-CEM leukemia) greater than 100 µM and a TGI (DU-145 prostate) greater than 100 µM. The TGI (HCC-2998 colon) was greater than 100 µM, the TGI (K-562 leukemia) was greater than 100 µM and the TGI (M14 melanoma) was greater than 100 µM. It also gave a TGI (MCF7 breast) greater than 100 µM, a TGI (MDA-MB-231 breast) greater than 100 µM and a TGI (NCI/ADR-RES ovarian) greater than 100 µM. It also gave a TGI (OVCAR-3 ovarian) greater than 100 µM, a TGI (OVCAR-4 ovarian) greater than 100 µM and a TGI (OVCAR-8 ovarian) greater than 100 µM. It also gave a TGI (SK-MEL-2 melanoma) greater than 100 µM, a TGI (SN12C renal) greater than 100 µM and a TGI (SNB-75 CNS) greater than 100 µM. It also gave a TGI (SR leukemia) greater than 100 µM and a TGI (T-47D breast) greater than 100 µM.
CC(=O)O[C@H]1CC[C@@]2(C)C(=C[C@H](c3ccc(O)cc3)[C@H]3[C@@H]4CC[C@H](OC(C)=O)[C@@]4(C)CC[C@@H]32)C1 was tested, and the TGI (A498 renal) was 57.8 µM, the TGI (CCRF-CEM leukemia) was 56.1 µM and the TGI (DU-145 prostate) was 48.8 µM. The TGI (HCC-2998 colon) was 36.2 µM, the TGI (K-562 leukemia) was 59.4 µM and the TGI (M14 melanoma) was 41.3 µM. It also gave a TGI (MCF7 breast) of 57.4 µM, a TGI (MDA-MB-231 breast) of 35.8 µM and a TGI (NCI/ADR-RES ovarian) of 31.9 µM. The TGI (OVCAR-3 ovarian) was 38.8 µM, the TGI (OVCAR-4 ovarian) was 41 µM and the TGI (OVCAR-8 ovarian) was 33.8 µM. For the same compound, the TGI (SK-MEL-2 melanoma) was 48.4 µM, the TGI (SK-MEL-5 melanoma) was 23.8 µM and the TGI (SN12C renal) was 69 µM. The TGI (SNB-75 CNS) was 51.7 µM.
With C/C=C1\CNC1C(=O)O (stereo not drawn) the TGI (A498 renal) was greater than 100 µM, the TGI (CCRF-CEM leukemia) was greater than 100 µM and the TGI (HCC-2998 colon) was greater than 100 µM. It also gave a TGI (K-562 leukemia) greater than 100 µM, a TGI (MCF7 breast) greater than 100 µM and a TGI (MDA-N) greater than 100 µM. It also gave a TGI (NCI/ADR-RES ovarian) greater than 100 µM, a TGI (OVCAR-3 ovarian) greater than 100 µM and a TGI (OVCAR-4 ovarian) greater than 100 µM. For the same compound, the TGI (OVCAR-8 ovarian) was greater than 100 µM, the TGI (SK-MEL-2 melanoma) was greater than 100 µM and the TGI (SK-MEL-5 melanoma) was greater than 100 µM. For the same compound, the TGI (SN12C renal) was greater than 100 µM.
In the case of CN(C)C1(N(C)C)Oc2c(c(=O)n(C)c(=O)n2C)C(c2ccccc2Br)C1(F)F (stereo not drawn), the TGI (A498 renal) is reported as greater than 100 µM, the TGI (CCRF-CEM leukemia) is reported as greater than 100 µM and the TGI (DU-145 prostate) is reported as greater than 100 µM. It also gave a TGI (HCC-2998 colon) greater than 100 µM, a TGI (K-562 leukemia) greater than 100 µM and a TGI (M14 melanoma) greater than 100 µM. The TGI (MCF7 breast) was greater than 100 µM, the TGI (MDA-MB-231 breast) was greater than 100 µM and the TGI (NCI/ADR-RES ovarian) was greater than 100 µM. It also gave a TGI (OVCAR-3 ovarian) greater than 100 µM, a TGI (OVCAR-4 ovarian) greater than 100 µM and a TGI (SK-MEL-2 melanoma) greater than 100 µM. The TGI (SK-MEL-5 melanoma) was greater than 100 µM, the TGI (SNB-75 CNS) was greater than 100 µM and the TGI (T-47D breast) was greater than 100 µM.
CS/C(=N\S(=O)(=O)c1cc(C)c(Cl)cc1Cl)NNc1cnc2ccccc2n1 was tested, and the TGI (A498 renal) was greater than 100 µM, the TGI (CCRF-CEM leukemia) was greater than 100 µM and the TGI (DU-145 prostate) was greater than 100 µM. For the same compound, the TGI (HCC-2998 colon) was greater than 100 µM, the TGI (K-562 leukemia) was greater than 100 µM and the TGI (M14 melanoma) was greater than 100 µM. For the same compound, the TGI (MCF7 breast) was greater than 100 µM, the TGI (MDA-MB-231 breast) was greater than 100 µM and the TGI (NCI/ADR-RES ovarian) was greater than 100 µM. It also gave a TGI (OVCAR-3 ovarian) greater than 100 µM, a TGI (OVCAR-4 ovarian) greater than 100 µM and a TGI (OVCAR-8 ovarian) greater than 100 µM. The TGI (SK-MEL-5 melanoma) was greater than 100 µM, the TGI (SN12C renal) was greater than 100 µM and the TGI (SNB-75 CNS) was greater than 100 µM. The TGI (T-47D breast) was greater than 100 µM.
Compound CC(=O)NC1C(OC2C(CO)OC(OCC3OC(n4ccc(N)nc4=O)C(O)C3O)C(NC(C)=O)C2O)OC(CO)C(O)C1O (stereo not drawn) has a TGI (A498 renal) greater than 100 µM, a TGI (CCRF-CEM leukemia) greater than 100 µM and a TGI (DU-145 prostate) greater than 100 µM. For the same compound, the TGI (HCC-2998 colon) was greater than 100 µM, the TGI (K-562 leukemia) was greater than 100 µM and the TGI (M14 melanoma) was greater than 100 µM. For the same compound, the TGI (MCF7 breast) was greater than 100 µM, the TGI (MDA-MB-231 breast) was greater than 100 µM and the TGI (NCI/ADR-RES ovarian) was greater than 100 µM. The TGI (OVCAR-3 ovarian) was greater than 100 µM, the TGI (OVCAR-4 ovarian) was greater than 100 µM and the TGI (OVCAR-8 ovarian) was greater than 100 µM. It also gave a TGI (SK-MEL-2 melanoma) greater than 100 µM, a TGI (SK-MEL-5 melanoma) greater than 100 µM and a TGI (SN12C renal) greater than 100 µM. For the same compound, the TGI (SNB-75 CNS) was greater than 100 µM, the TGI (SR leukemia) was greater than 100 µM and the TGI (T-47D breast) was greater than 100 µM.
